Data published in ChEMBL document CHEMBL4007503, “Easy and rapid preparation of benzoylhydrazides and their diazene derivatives as inhibitors of 15-lipoxygenase” (Bioorg Med Chem Lett, 2017).
One block for each compound: values may come before it. Active and inactive are the calls of the source. The calls are words filed in the database; no cut-off is given here.

How the values were obtained:
[1] = Antioxidant activity assessed as ferric ion reducing activity by measuring Fe2+ levels using Fe3+-TPTZ after 40 mins by FRAP assay; format: functional
[2] = system: Glycine max; experiment: Inhibition of soybean 15-LOX at 10 uM using linoleic acid as substrate relative to control
[3] = Antioxidant activity assessed as cupric ion reducing activity after 30 mins by CUPRAC assay; format: functional
[4] = system: Glycine max; experiment: Potency index, ratio of 4-methyl-2-(4-methylpiperazinyl)-pyrimido[4,5b]benzothiazine IC50 to compound IC50 for soybean 15-LOX
[5] = system: Glycine max; experiment: Inhibition of soybean 15-LOX assessed as Km for substrate using linoleic acid as substrate by Lineweaver-Burk plot analysis
[6] = Competitive inhibition of soybean 15-LOX using linoleic acid as substrate by Lineweaver-Burk plot analysis; design: species or system Glycine max
[7] = system: Glycine max; experiment: Inhibition of soybean 15-LOX assessed as Vmax for substrate using linoleic acid as substrate by Lineweaver-Burk plot analysis
[8] = Inhibition of soybean 15-LOX using linoleic acid as substrate; design: species or system Glycine max
[9] = biological target: T1, Polyunsaturated fatty acid lipoxygenase ALOX15 (Homo sapiens, UniProt P16050); experiment: Inhibition of thapsigargin-stimulated 15-LOX in human primary polymorphonuclear leukocytes using arachidonic acid as substrate preincubated for 5 mins followed by thapsigargin stimulation for 5 mins by RP-HPLC method
T1 sequence (P16050 whole entry): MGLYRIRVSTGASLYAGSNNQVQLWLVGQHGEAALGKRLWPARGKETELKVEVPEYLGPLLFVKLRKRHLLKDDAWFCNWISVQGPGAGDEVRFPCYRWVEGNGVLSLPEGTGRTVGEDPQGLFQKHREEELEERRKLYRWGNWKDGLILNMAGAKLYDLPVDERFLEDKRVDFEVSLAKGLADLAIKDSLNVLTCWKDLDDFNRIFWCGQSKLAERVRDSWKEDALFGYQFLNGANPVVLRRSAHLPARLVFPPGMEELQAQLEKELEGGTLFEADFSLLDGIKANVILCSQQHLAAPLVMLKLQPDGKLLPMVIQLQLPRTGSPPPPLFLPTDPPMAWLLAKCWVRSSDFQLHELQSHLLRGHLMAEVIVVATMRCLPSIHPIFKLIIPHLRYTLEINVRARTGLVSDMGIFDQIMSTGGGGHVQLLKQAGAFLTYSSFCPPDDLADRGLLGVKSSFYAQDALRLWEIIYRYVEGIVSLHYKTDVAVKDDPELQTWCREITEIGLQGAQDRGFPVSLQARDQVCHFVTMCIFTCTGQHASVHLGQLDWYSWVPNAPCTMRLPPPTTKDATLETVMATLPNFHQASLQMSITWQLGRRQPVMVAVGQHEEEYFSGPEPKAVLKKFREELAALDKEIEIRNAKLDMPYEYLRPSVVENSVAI

[10] = biological target: T1, Polyunsaturated fatty acid lipoxygenase ALOX15; experiment: Inhibition of 15-LOX in human primary polymorphonuclear leukocytes

inhibition [2]: 9%
Compound: N#Cc1ccc(NNC(=O)c2ccccc2)cc1

inhibition [2]: 44%
Compound: Cc1ccc(/N=N/C(=O)c2ccccc2)cc1

Km [5]: 140 µM | inhibition [2]: 80% | Ki [6]: 3.89 µM | Vmax [7]: 0.57 µM/s | IC50 [8]: 9.78 µM
Compound: N#Cc1ccc(/N=N/C(=O)c2ccccc2)cc1

IC50 [9]: 0.13 µM
Compound: O=C(/C=C/c1ccc(O)c(O)c1)OCCc1ccccc1 [CAFFEIC ACID PHENETHYL ESTER]

inhibition [2]: 73%
Compound: COc1ccc(NNC(=O)c2ccccc2)cc1
Activity [1]: Active

inhibition [2]: 44%
Compound: O=C(/N=N/c1ccc(Br)cc1)c1ccccc1

inhibition [2]: 87% | IC50 [8]: 6.97 µM
Compound: O=C(/N=N/c1ccccc1)c1ccccc1

inhibition [2]: 28%
Compound: O=C(NNc1ccc(Br)cc1)c1ccccc1
Activity [1]: Active

The next lines start with the compound.

Compound: O=C(NNc1ccccc1)c1ccccc1
Activity [1]: Active | inhibition [2]: 33% | Activity [3]: Active

Compound: Cc1ccc(NNC(=O)c2ccccc2)cc1
Ratio IC50 [4]: 3.4 | Activity [1]: Active | Km [5]: 89.6 µM | inhibition [2]: 93% | Ki [6]: 0.81 µM | Vmax [7]: 0.46 µM/s | IC50 [8]: 5.35 µM

Compound: NS(=O)(=O)c1ccc(NNC(=O)c2ccccc2)cc1
inhibition [2]: 10%

Compound: O=C(/N=N/c1ccc([N+](=O)[O-])cc1)c1ccccc1
inhibition [2]: 34%

Compound: O=C(NNc1ccc([N+](=O)[O-])cc1)c1ccccc1
inhibition [2]: 17%

Compound: COc1ccc(/N=N/C(=O)c2ccccc2)cc1
inhibition [2]: 19%

Compound: CC(c1cc2ccccc2s1)N(O)C(N)=O (stereo not given) [ZILEUTON]
IC50 [10]: 0.4 µM
